Assay: Human HepG2 cell viability assay in 384 well format
Type: toxicity, cell-based
Set-up: dose 125 nL, time 70.5 hour; cytotoxicity at 70.5 h: concentration not given beside the values
Details: HepG2 cells, read-out: Inhibition

| SMILES | cytotoxicity at 70.5 h [%] |
| --- | --- |
| Cc1c(C)n2c(SCC(=O)N3CCCCCC3)nnc2[nH]c1=O | -7.58 |
| O=C(CC1CSc2nccc(=O)n21)NCc1cc(-c2ccco2)on1 (stereo not given) | -11.9 |
| Cc1cc(=O)n2c(n1)SCC2CC(=O)NCc1cc(-c2ccco2)on1 (stereo not given) | -9.17 |
| CCCc1cc(=O)[nH]c2nnc(SCC(=O)NCCc3ccccc3)n12 | -5.81 |
| Cc1ccccc1-n1ncc2c(=O)n(CCN3CCCC3)cnc21 | 26.8 |
| CN1C(=O)c2cccc(NC(=O)c3cccc(S(C)(=O)=O)c3)c2C1=O | -4.72 |
| CCCNC(=O)Cn1c(-n2nc(C)cc2C)nc(CCC)cc1=O | 3.03 |
| O=C(CSC1=NS(=O)(=O)c2cc(Cl)ccc2N1)c1ccccc1 | 23.9 |
| CCCc1cc(=O)[nH]c(SCc2ccccn2)n1 | -2.16 |
| CCCNC(=O)Cn1cc(OC)c(=O)cc1CSc1nc(C)cc(C)n1 | -13.1 |
| O=c1nc(SCc2ccncc2)c2c(n1CCO)CCC2 | -0.878 |
| O=c1nc(SCc2ccc(Cl)cc2)c2c(n1CCO)CCC2 | 20.9 |
| COc1ccc(NC(=O)Cn2nc(C)c(C(C)=O)c2C)cc1 | 2.67 |
| Cc1ccc(S(=O)(=O)N(C)c2ccsc2C(=O)NCC(C)C)cc1 | 45.4 |
| CCN(c1ccsc1C(=O)N1CCC(C)CC1)S(=O)(=O)c1ccccc1 | -11.9 |
| CCN(c1ccsc1C(=O)N1CCSCC1)S(=O)(=O)c1ccccc1 | 6.6 |
| CCN(c1ccsc1C(=O)N1CCSCC1)S(=O)(=O)c1ccc(Cl)cc1 | -3.47 |
| Cc1ccc(NC(=O)Cn2ncc(SCC(N)=O)c(Cl)c2=O)cc1 | -7.72 |
| Cc1cc(NC(=O)Cn2ncc(SCC(N)=O)c(Cl)c2=O)ccc1Br | -5.33 |
| O=C(C1=NN(Cc2ccccc2)c2ccccc2S1(=O)=O)N1CCCC1 | -0.281 |
| CC(C)Cn1nc2ccc(S(=O)(=O)N3CCC(C)CC3)cn2c1=O | -10.3 |
| CC1CCN(C(=O)c2cn(-c3cc(N4CCSCC4)ncn3)cn2)CC1 | 3.74 |

| SMILES | cytotoxicity at 70.5 h [%] |
| --- | --- |
| O=C(c1cn(-c2cc(N3CCSCC3)ncn2)cn1)N1CCOCC1 | 23.9 |
| CNC(=O)C1CCCN(c2nc3c(-c4ccccc4)csc3c(=O)[nH]2)C1 (stereo not given) | 4.92 |
| Cc1ccc(-c2csc3c(=O)[nH]c(N4CCCC(C(=O)O)C4)nc23)cc1 (stereo not given) | 3.06 |
| COCCCNC(=O)Cc1cc(-c2ccccc2)on1 | -0.233 |
| CCOc1nn(CC)cc1-c1nnc(SCc2cccnc2)n1C | -5.3 |
| COCCN1C(=O)CC[C@@H]2[C@H]1CCN2C(=O)N(C)C | -8.72 |
| O=C(C1CCC1)N1CCO[C@@H]2CNC[C@@H]21 | 12.9 |
| CC(C)N(C)Cc1ncn2c1CN(CC(=O)N(C)C)CCC2 | 8.76 |
| CCOC(=O)C1CN(S(=O)(=O)C2CC2)Cc2ncn(CC)c21 (stereo not given) | 11 |
| COCCN(CCOC)C(=O)c1ccn(-c2ccc3ccccn23)n1 | 11.4 |
| CCN1C(=O)CC(c2cnn(C)c2)C12CCN(C(=O)c1ccc[nH]1)CC2 (stereo not given) | -1.7 |
| CCOC(=O)C1CN(C(=O)COC)Cc2ncn(CC)c21 (stereo not given) | -5.03 |
| CN1CC2(CCN(Cc3cccnc3)CC2)c2cc(F)ccc21 | -3.7 |
| CN(C)Cc1cc(=O)n2c(n1)CN(Cc1ccco1)CCC2 | -4.34 |
| CCOC(=O)C1CN(C(=O)C2CCOCC2)Cc2ncn(CC)c21 (stereo not given) | -3.55 |
| CCN1C(=O)CC(c2cnn(C)c2)C12CCN(C(=O)c1ccoc1)CC2 (stereo not given) | -0.434 |
| CC(C)CNC(=O)N1CCC2(CCCO2)C1 (stereo not given) | -1.61 |
| CC(=O)N1CCCn2c(nc(CNS(=O)(=O)C3CC3)cc2=O)C1 | -2.61 |
| CCC(CC)NC(=O)c1ccc2nnc(C3CCN(C(C)=O)C3)n2c1 (stereo not given) | 5.94 |
| O=C(NC1CCCC1)c1nc2c(o1)CN(C(=O)CCO)C2 | -4.91 |
| CCS(=O)(=O)N1CCOC2(CCCN(c3ncc(F)cn3)C2)C1 (stereo not given) | -4.67 |
| O=c1cc(CNS(=O)(=O)C2CC2)nc2n1CCCNC2 | -2.64 |

| SMILES | cytotoxicity at 70.5 h [%] |
| --- | --- |
| CC(C)NC(=O)c1ccc2nnc(C3CCN(C(=O)NC(C)C)C3)n2c1 (stereo not given) | -0.652 |
| Cc1nc(-c2cc(C(=O)N3CCN(C)CC3)c3ccccn23)cn1C | -0.647 |
| CC(=O)N1CCC(c2nnc3ccc(C(=O)NC(C)C)cn23)C1 (stereo not given) | -1.85 |
| O=C(NC1CCCC1)c1nc2c(o1)CN(CCO)C2 | -0.956 |
| COC1COC2(CCN(C(=O)c3cscn3)CC2)C1 (stereo not given) | -6.82 |
| CN(C)C(=O)CNC(=O)c1ccc2c(-c3nccs3)noc2c1 | -3.55 |
| O=C1COC2(CCN(c3ncccn3)CC2)CN1c1ccsc1 | -4.75 |
| CCC(=O)N1CCC2(CC1)CC(CC(N)=O)c1ccc(F)cc12 (stereo not given) | -7.49 |
| CC(C)N(C)Cc1noc2c1CN(C(=O)c1ccsc1)CC2 | -12.5 |
| COc1cc(N2CCc3ncnc(-c4cnn(C)c4)c3CC2)ncn1 | -12 |
| CN(C)CCNC(=O)c1ccc2c(-c3nccs3)noc2c1 | -8.08 |
| COC[C@]12COC[C@H]1CN(C(=O)C1CCSCC1)C2 | -6.73 |
| O=C(NCCN1CCCC1)c1ccc2c(-c3nccs3)noc2c1 | -6.42 |
| CNC(=O)c1cnc2n1CCN(Cc1cccnc1OC)C2 | -4.55 |
| CC1c2ncc(Cn3cncn3)n2CCN1C(=O)Cc1cccs1 (stereo not given) | -6.55 |
| CCOCc1cnc2n1CCN(C(=O)Cc1ccco1)C2C (stereo not given) | -6.58 |
| C[C@H]1C[C@@H]2CCN(CC3CCOCC3)C[C@H]2O1 | -7.97 |
| CC(C)N1c2sc(-c3ccsc3)nc2CC1C(=O)NC1CCCC1 (stereo not given) | -7.06 |
| Nc1nc(N2CCCCCC2)ncc1C(=O)NCc1ccc(F)c(Cl)c1 | -10.8 |
| CCCC(=O)N(CCCN1CCOCC1)c1nc2c(Cl)cccc2s1 | 1.41 |
| CN1C(=O)C2(CCN(Cc3cccnc3)CC2)c2cccc(F)c21 | -3.56 |
| c1csc(-c2noc(C3CCCNC3)n2)c1 (stereo not given) | -16.5 |

| SMILES | cytotoxicity at 70.5 h [%] |
| --- | --- |
| CC(C)N1[C@H](Cn2cncn2)C[C@@H]2CNCC[C@@H]21 | 0.707 |
| O=C(Cc1ccsc1)N1C[C@@H]2OCCN(c3cnccn3)[C@@H]2C1 | 12.1 |
| COCCN1CCCc2sc(C(=O)Nc3ccc(C)nc3)nc21 | -0.226 |
| c1coc(CN2CCn3c(COCC4CC4)nnc3C2)c1 | 0.787 |
| CCCN1CCC2(C1)c1ccccc1S(=O)(=O)N2C (stereo not given) | -0.72 |
| COCCN1CCC2(C1)c1ccccc1S(=O)(=O)N2Cc1ccccc1 (stereo not given) | 1.99 |
| CC(C)N1[C@H](Cn2cncn2)C[C@@H]2CN(c3ncccn3)CC[C@@H]21 | -0.391 |
| COCCN1CCC2(C1)CN(c1ncc(F)cn1)C2 | 0.704 |
| CC(C)N1CCO[C@H]2CN(C(=O)Cc3ccsc3)C[C@H]21 | -2.31 |
| CCOC(=O)C1CN(CC2CC2)Cc2ncn(CC)c21 (stereo not given) | -2.34 |
| COCCN1CCO[C@@H]2CN(C(=O)NCc3ccccc3)CC[C@@H]2C1 | 2.53 |
| Cn1cc(N2C[C@@H]3CN(CC4CCOCC4)C[C@@H]3C2=O)cn1 | 2.05 |
| O=C(NCC1Cn2nnc(-c3ccncc3)c2CO1)c1ccsc1 (stereo not given) | 1.38 |
| CC(C)c1nc(-c2cc(C(=O)N3CCN(C)CC3)c3ccccn23)cs1 | 9.79 |
| O=C(C1CN(CC2CC2)CC12CCOCC2)N1CCOCC1 (stereo not given) | -1.96 |
| O=C1[C@H]2CN(CC3CCOCC3)C[C@H]2CN1c1ccsc1 | -1.42 |
| CC(C)n1ccc(-c2cc(C(=O)N3CCN(C)CC3)c3ccccn23)n1 | -3.84 |
| O=S(=O)(C1CC1)N1CCC2(CCN(Cc3nccs3)CC2)CC1 | -2.17 |
| CS(=O)(=O)N1CCC2(CCN(Cc3nccs3)CC2)CC1 | -0.411 |
| CN(C)S(=O)(=O)N1CC[C@]2(C[C@H](OCc3ccncc3)CO2)C1 | -0.865 |
| OCCN1CCC2(CCc3cc(-c4ccoc4)ccc32)CC1 | -2.95 |
| c1ccc(CCNCC2Cn3nncc3CO2)cc1 (stereo not given) | -0.333 |

| SMILES | cytotoxicity at 70.5 h [%] |
| --- | --- |
| Cc1ccc(CN2CC[C@H]3[C@H]2CCN3S(=O)(=O)C2CC2)cc1 | -6.33 |
| COCCN1CCN(S(=O)(=O)C2CC2)Cc2ccc(C)nc21 | -5.69 |
| CN(C)Cc1nc2c(o1)CN(C(=O)NCc1cccc(F)c1)C2 | -5.42 |
| O=C(c1cocn1)N1CCC2(CC1)CC(Oc1ccccn1)CO2 (stereo not given) | -8.48 |
| COCCN1CCC2(COCCN(C(=O)Cc3cccs3)C2)C1 (stereo not given) | -5.29 |
| Cc1ccc(N2C[C@@H]3CN(Cc4ccsc4)CCO[C@@H]3C2)nn1 | -11.5 |
| Fc1ccc(CN2CCC3(CCN(Cc4nccs4)CC3)C2)cc1 | -0.695 |
| c1cc2c(cc1CN1CC[C@H]3CO[C@H](CN4CCCC4)[C@H]3C1)OCO2 | -1.72 |
| Fc1ccc(CN2CCOCC3(CCN(Cc4nccs4)C3)C2)cc1 (stereo not given) | -1.05 |
| CNC(=O)CN1CCO[C@H]2CN(CC3CCOC3)C[C@H]21 (stereo not given in full) | -1.2 |
| CNC(=O)CN1CCO[C@H]2CN(CC3CCOCC3)C[C@H]21 | -2.33 |
| COCCN1CCCn2cnc(CN(C)C(C)C)c2C1 | 4.24 |
| CN(C)CCOCc1nnc2n1CCN(Cc1ccsc1)C2 | 2.24 |
| c1cncc(-c2ccc3c(c2)CCC32CCN(Cc3nccs3)CC2)c1 | -2.27 |
| CN(C)CCN1CCC2(CCCN(C(=O)C3CCC3)C2)CC1 | -1.03 |
| COCC(=O)N1CCCC2(CCN(CCN3CCCC3)CC2)C1 | -1.48 |
| CN(C)CC(=O)N1CCC2(CCc3cc(-c4cccnc4)ccc32)CC1 | -0.278 |
| c1csc(CN2CCC3(CC2)CCN(CC2CC2)CC3)n1 | 14.9 |
| CN1CCC(NC(=O)[C@H]2CC[C@@H]3[C@@H](CCN3c3ncccn3)O2)CC1 | -6.76 |
| C[C@@H]1CN(C2CCOCC2)C[C@]12CCN(c1cccnc1)C2=O | -5.4 |
| COc1ncccc1CN1CCn2c(C(=O)N3CCCC3)cnc2C1 | -5.02 |
| Cc1cc(C)c(N(CC(O)CNCc2ccccc2)S(C)(=O)=O)c(C)c1 (stereo not given) | -6.51 |
